Patent US10729700B2, “Methods and compositions of bile acids and salts for reduction of fat” (priority 2014, dated 2020)
Read-outs that look alike come from different tables or passages of the source.

Experiments:
3T3-L1 adipocytes = experiment: Cell lysis effect by detergent in vitro (MTT assay); type: cell-based; conditions: for EC50 (concentration that kills 50% of the cells) / ED50 (% w/v); EC50 values of bile salts required to lysis of adipose cells in vitro: differentiated 3T3-L1 adipocytes; for ED50 (% w/v); EC50 values of bile salts required to lysis of adipose cells in vitro: 1 hour, MTT
Description: To induce adipocyte differentiation, 3T3-L1 pre-adipocytes were seeded in 96-well plate (5×10^3 cells/well) and grown until 2 days post-confluence (day 0) and then treated for 2 days with growth media plus MDI (0.5 μM methylisobutylxanthine, 1 μM dexamethasone and 10 ug/ml insulin; all from Sigma-Aldrich Chemical, St. Louis, Mo., USA), followed by 2 days of treatment with the media containing 10 ug/ml insulin alone. Medium was replaced every 2 days for the following 8 days. Differentiated adipocytes in 96 well plate were washed twice with PBS and incubated in various concentrations of bile salts in serum free DMEM. After 1 hour incubation at 37° C., media were changed and 20 μl of MTT solution (5 mg MTT/ml in PBS) was added into each well and incubated for 1 hour at 37° C. The resultant formazan product was dissolved in 100 μl of DMSO/well and cell viability was determined by measuring the optical density at 570 nm (OD570) using a microplate reader.

rat paws [1] = experiment: Bile salt-induced paw edema; conditions: 4 hours after injection; for severity of edema (paw thickness): concentrations and pHs showing similar tissue lysis effects
Description: (§1) Male SD rats (6 weeks old) were purchased from Koatech Co. (Seoul, Korea) and used after 1 week of acclimation. Rats (200˜230 g) were randomly selected and the volume of intact rats paw was measured in all groups using a digital caliper (Bluebird, Seoul, Korea). […] To induce the edema, rats received 100 μl of various bile salts and PBS into the plantar region of the hind foot of rats. Measurements of the paw volume were performed by a caliper immediately before the bile salts injection and 4 hours after injection.

[2] = Stability of bile salts in aqueous solution; conditions: for pH in which aqueous solution remained stable: 1% (w/v), 10 mM phosphate buffer, 25° C.; for Solution stability of bile salt: 1% in 10 mM phosphate buffer; for pH stability: summary, Table 4
Description: 0.01 g of bile salts (UDCA, DCA, CDCA and CA) were dissolved in 1 ml of phosphate buffer and placed at room temperature for 10 days.

[3] = tested on: inguinal fat pad of obese mouse; experiment: In vivo monitoring of bile salts induced fat loss; conditions: 1% solutions, 5 times during 2 weeks
mice skin = experiment: In vivo monitoring of adverse events on the skin; conditions: for skin lesions on the injected area: subcutaneous, pH 7.4, 0.5-1.5%
Description: Injections were repeated 1 more times 3 days after first injection. […] The severity of skin lesion was assessed using the following criteria. The total skin severity score was defined as the sum of the individual scores for each of the following character and length of lesion. Length of lesion is determined by measuring the longest diameter of the largest lesion identified. Measured length should involve the lesion only and not cross over clinically normal skin. The length of lesion involvement within each injected site was scored from 0 to 3, where 0=no involvement; 1=<0.2 cm, 2=0.2˜0.5 cm, 3=>0.5 cm of the length of site affected. The character of lesion was scored from 0 to 3, where 0=no lesion present, 1=excoriation only one or one, small punctate crust (<2 mm), 2=multiple, small punctate crusts or coalescing crust (>2 mm), 3=erosion or ulceration.

[4] = tested on: Inguinal fat (subcutaneous fat) pads; experiment: Ex vivo fat lysis assay (MTT); type: cell-based, diet induced obese mice; conditions: for ED50 (% w/v); EC50 values of bile salts required to lysis of fat tissues ex vivo: fat tissues of high fat diet mice, 10 minutes, MTT; for effect of increased pH of solution on fat lysis activities: pH 6.0 ˜pH 9.0, bile salt at EC50 in pH 7.4; for EC50 fold higher than DCA or CDCA, ex vivo: relative to DCA or CDCA; for fat lysis activities above the pH 9: solutions above the pH 9
Description: Inguinal fat (subcutaneous fat) pads were excised from diet induced obese mice and chopped to about the same size. 100 mg tissue samples were transferred to 48 well plates and incubated with 350 μl of various concentrations and pH of DCA, CDCA, CA, and phosphate buffer for 10 minutes. 70 μl of MTT solution (5 mg/ml in PBS) was added into each well and incubated for overnight at 37° C. The solution was removed and precipitated formazan product was dissolved in 300 μl of DMSO. Tissue viability was monitored by measuring the optical density at 570 nm (OD570) using a microplate reader.

tails of female ICR mice = experiment: In vivo monitoring of tissue specific effects of bile salts (tail injection); conditions: pH 7.4 solution; for skin layers of tails / fat layers of tails: 14 days post-injection; for fat layers of tails: compared to saline
[5] = tested on: inguinal fat pads of obese mice; experiment: Quantitation of in vivo necrotic area (TTC staining) and histology of injected fat pads; conditions: for tissue lysis effect with higher concentration: necrotic area, FIGS. 12B and 12C
Description: Various concentrations of bile salts (DCA, CDCA, and CA) solutions in 100 μl volume of PBS were injected to the inguinal fat pads of obese mice. Mice were sacrificed at 1 day after the injection. Mouse inguinal fat pads were stained with 2% TTC (Sigma-Aldrich Chemical, St. Louis, Mo., USA) in PBS for 2 hour to identify the non-necrotic and necrotic areas and subsequently immersed in 10% formalin to enhance the contrast. […] The appearance and area of necrotic fat regions were captured and imaged by scanner. The necrotic area of fat pad treated DCA, CDCA, CA, and PBS was calculated by Image J.

[6] = tested on: inguinal fat pads of obese mice; design: Inflammation of injection site: key to the marks not given beside the values; conditions: mouse, in vivo
rat paws [7] = conditions: in vivo
Description: as §1

Compound | EC50 (concentration that kills 50% of the cells) (3T3-L1 adipocytes) [%] | ED50 (% w/v); EC50 values of bile salts required to lysis of adipose cells in vitro (3T3-L1 adipocytes) [% w/v] | viability of adipocyte cells (3T3-L1 adipocytes; up to 2% concentration) | severity of edema (paw thickness) (rat paws [1]) | pH in which aqueous solution remained stable [2] | Solution stability of bile salt ([2]; pH 6.5, 25° C.) | Solution stability of bile salt ([2]; pH 6.7, 25° C.) | Solution stability of bile salt ([2]; pH 7.0, 25° C.) | Solution stability of bile salt ([2]; pH 7.2, 25° C.) | Solution stability of bile salt ([2]; pH 7.4, 25° C.) | Solution stability of bile salt ([2]; pH 7.6, 25° C.) | Solution stability of bile salt ([2]; pH 7.8, 25° C.) | Solution stability of bile salt ([2]; pH 8.0, 25° C.) | Solution stability of bile salt ([2]; pH 8.3, 25° C.) | pH stability [2] | histology of injected area (H & E) [3] | lesions in the administered area of fat tissues [3] | EC50 concentrations, ex vivo condition [4] [%] | ED50 (% w/v); EC50 values of bile salts required to lysis of fat tissues ex vivo [4] [% w/v] | effect of increased pH of solution on fat lysis activities [4] | further results
C[C@H](CCC(=O)O)[C@H]1CC[C@H]2[C@@H]3[C@H](O)C[C@@H]4C[C@H](O)CC[C@]4(C)[C@H]3C[C@H](O)[C@]12C [CA, cholate] | 0.42 | 0.42 | showed cell killing | very mild | < 7.0 | Precipitation | Precipitation | Stable | Stable | Stable | Stable | Stable | Stable | Stable | <7.0 | Fibrotic areas | yellowish lesions | 0.0727 | 0.0727 | greatly diminishes the fat lysis activities | increment of foot thickness relative to the case of DCA (rat paws [1]): less than one-half; skin lesions (mice skin; higher dose (1.5%)): Only small punctate lesions; skin damage score (mice skin; highest dose of CA (1.5%) compared to lowest dose of DCA (0.5%)): lower damage score; skin lesions (mice skin; lower doses): no detectable lesions; skin lesions on the injected area (mice skin): significantly less lesions; EC50 fold higher than DCA or CDCA, ex vivo [4]: 4 fold; fat lysis activities above the pH 9 [4]: mostly lost their fat lysis activities; skin layers of tails (tails of female ICR mice): not severely damaged; fat layers of tails (tails of female ICR mice): disrupted; concentration enough to show similar necrotic effects with DCA and CDCA ([5]; mouse, in vivo): about two fold higher concentration; concentration enough to show similar tissue lysis effect with 1% DCA (pH 8.3) ([5]; mouse, in vivo): 1.5%; necrotic areas at the same concentration ([5]; mouse, in vivo): smaller than DCA or CDCA; concentration showing similar tissue lysis activity with the injection of 1% DCA ([5]; mouse, in vivo, pH 7.4): about 2%
C[C@H](CCC(=O)O)[C@H]1CC[C@H]2[C@@H]3[C@H](O)C[C@@H]4C[C@H](O)CC[C@]4(C)[C@H]3CC[C@]12C [CDCA, chenodeoxycholate] | 0.060 | 0.0597 |  | slightly lower symptom |  | Gelaton | Gelation | Gelation | Precipitation | Stable | Stable | Stable | Stable | Stable | <7.4 | Fibrotic areas | yellowish lesions | 0.0180 | 0.018 | greatly diminishes the fat lysis activities | viability of adipocyte cells (3T3-L1 adipocytes; low concentration (below 0.1%)): reduced the viability of adipocyte cells; fat lysis activities above the pH 9 [4]: mostly lost their fat lysis activities; concentration enough to show similar tissue lysis effect with 1% DCA (pH 8.3) ([5]; CA at pH 7.0, CDCA at pH 7.4): 0.6%; concentration showing similar tissue lysis activity with the injection of 1% DCA ([5]; same pH (pH 7.4)): 1%
C[C@H](CCC(=O)O)[C@H]1CC[C@H]2[C@@H]3C[C@H](O)[C@@H]4C[C@H](O)CC[C@]4(C)[C@H]3CC[C@]12C [HDCA, hyodeoxycholate] | 0.42 | 0.249 |  |  |  | Gelation | Gelation | Gelation | Gelation | Stable | Stable | Stable | Stable | Stable | <7.4 |  |  | 0.0250 | 0.0250 | greatly diminishes the fat lysis activities | cell killing effect compared to CA (3T3-L1 adipocytes; similar concentration (0˜1%)): slightly higher cell killing effect compared to CA; Inflammation of injection site [6]: +++; histological changes in fat pads (H & E) [6]: Infiltration of polymorphonuclear (PMN) cells into the fat pad tissue was observed; inflammation after injection to subcutaneous fat [6]: severe inflammation; Adverse event: edema (rat paws [7]): ++; severity of edema (paw thickness) (rat paws [7]): slightly lower symptom; EC50 fold higher than DCA or CDCA, ex vivo [4]: 1.4 fold; tissue lysis effect with higher concentration [5]: did not increased proportionally
C[C@H](CCC(=O)NCCS(=O)(=O)O)[C@H]1CC[C@H]2[C@@H]3[C@@H](O)C[C@@H]4C[C@H](O)CC[C@]4(C)[C@H]3CC[C@]12C [TUDCA, taurourosodeoxycholate] |  |  | did not reduce the viability of adipocyte cells |  |  |  |  |  |  |  |  |  |  |  |  |  |  |  |  |  | 
C[C@H](CCC(=O)O)[C@H]1CC[C@H]2[C@@H]3[C@@H](O)C[C@@H]4C[C@H](O)CC[C@]4(C)[C@H]3CC[C@]12C [UDCA, ursodeoxycholate] | 0.25 | 0.328 |  | slightly lower symptom | < 7.8 | Precipitation | Precipitation | Precipitation | Precipitation | Precipitation | Precipitation | Stable | Stable | Stable | <7.8 |  |  |  |  |  | histological changes in fat pads (H & E) ([5]; 1.5% solution): Infiltration of polymorphonuclear (PMN) cells into the fat pad tissue was observed; tissue lysis effect with higher concentration [5]: did not increased proportionally; inflammation after injection to subcutaneous fat ([5]; one time injection): severe inflammation
deoxycholate [DCA] | 0.051 | 0.0509 |  | most severe edema phenotype | lower than 8.3 | Gelation | Gelation | Gelation | Gelation | Gelation | Gelation | Gelation | Gelation | Stable | <8.3 | Fibrotic areas | yellowish lesions | 0.0179 | 0.0179 | do not show greatly decreased fat lysis activity | viability of adipocyte cells (3T3-L1 adipocytes; low concentration (below 0.1%)): reduced the viability of adipocyte cells; skin lesions (mice skin; higher concentrations): Large lesions, erosions and ulcers; skin lesions (mice skin; lowest dose (0.5%)): small punctate lesions; skin lesions on the injected area (mice skin): severe skin lesions; skin layers of tails (tails of female ICR mice): not severely damaged; fat layers of tails (tails of female ICR mice): disrupted; damages of muscles in tails (tails of female ICR mice; same concentration of DCA and CA): prominent; tissue lysis activity at pH 8.3 compared with pH 7.4 ([5]; necrotic area after injection): lower than the activity of DCA preparation in condition of pH 7.4
